Measured values taken from patent US8986696B2, “Trans-capsular administration of p38 map kinase inhibitors into orthopedic joints” (DePuy Mitek, Inc., priority 2007, dated 2015).

Legend:
[1] = system: injured cartilage explants, GAG release; experiment: drop tower design model: GAG release; type: cell-based, bovine; conditions: injured cartilage explants, inflammatory conditions
Source text: The device comprises a vertical rail that guides a sliding weight from 0.1 kg to 3 kg directly onto a force transducer which is situated at the bottom of the device. A sphere-shaped 2 mm indenter resting on a specimen is located at the bottom of the vertical rail. The indenter is held by a stop screw. The specimen is rigidly attached to a tissue holder underneath the indenter, to avoid side movements, the specimen is rigidly attached to the tissue holder. In this manner, the force transducer transduces a force indirectly onto the specimen. Adjusting the weight of a mass and height from which the mass drops varies the magnitude of the intended impact. For example, a weight mass (e.g., […]) held by a weight holder can be released from a height of e.g., 36 cm and dropped onto the force transducer.
Samples for compound evaluation were tested using either of two different methods to induce inflammatory conditions. One method utilized media conditioned from peripheral blood mononuclear cells (PBMCs) stimulated with LPS (“+LPS”) or non-inflammatory media without LPS (“−LPS”). Another method utilized the absence or presence of a cocktail of cytokines.
In the first method, bovine or human PBMCs were freshly prepared using Ficoll gradient by Lampire Biological Laboratories, Inc. PBMCs in RPMI w/10% FCS at delivery were spun down at 1500 rpm for twenty minutes and the cell pellet was washed twice with 1×PBS to wash off the residual Ficoll. The cells were then resuspended at a density of 1×10^6/ml in RPMI supplemented with 10% FCS, 1× Antibiotics-Antimycotics. The suspension was divided into two aliquots. One aliquot was stimulated with 10 μg/ml of LPS and the other was not stimulated. Both aliquots were then incubated at 37° C., 5% CO2 for twenty-four to seventy-two hours. The conditioned media with or without LPS stimulation are collected, aliquoted, and stored in −80° C. for a maximum of three months. Each conditioned medium was assessed for levels of pro-inflammatory cytokines to ensure their secretion from PBMC. A representative cytokine, IL-6, was assayed by ELISA using a Human IL-6 Quantikine kit and it was shown that the LPS-stimulated medium had at least 10 ng/ml of IL-6, while IL-6 was undetectable in the unstimulated medium.
In the second method, the explants were cultured at 37° C., 5% CO2 either in stimulated or non-stimulated conditioned medium as described above or in defined medium containing DMEM supplemented with 1% FCS, 1× insulin-transferrin-sodium selenite media supplement and Antibiotics-Antimycotics in the presence or absence of a cocktail of cytokines containing 10 ng/ml of IL-1β, 100 ng/ml of TNFα and 5 ng/ml of IFN-γ. The compounds were solubilized in H2O, Ethanol or DMSO (10^−2 M) according to suppliers' instructions and further diluted with either conditioned medium stimulated with or without LPS to the required concentrations. DMSO concentrations in the culture media never exceeded 1%. This concentration of DMSO has no effect on cartilage proteoglycan metabolism in response to cytokines. The injured and noninjured cartilage explants were treated with compound-containing medium for three to five days. The specimens were first treated with compounds at desired concentrations at 37° C. for one hour and then incubated for three to five days in the absence or presence of the cocktail of cytokines. At the end of the incubation, media and cartilage samples were harvested and frozen for further analysis.
Glycosaminoglycan (GAG) levels in the culture media or cartilage were determined by measuring the amount of polyanionic material reacting with 1,9-dimethylmethylene blue (DME) as detected by absorbance at 525 nm, using shark chondroitin sulfate as a standard. The DME blue dye-binding solution was prepared by dissolving 16 mg of DME blue in a solution containing 0.304% glycine, 0.23% NaCl, 9.5 mM HCl, pH=3.0 with A525 equaling 0.31. […]

[2] = system: rabbit anterior cruciate ligament transection (ACLT) model of osteoarthritis; experiment: ACLT model, p38 MAP kinase inhibitors (Example VII); type: in vivo; design: key to Clinical Scoring - Total Score, Mean / Clinical Scoring - Trochlear Groove Effects, Mean / Clinical Scoring - All Tibial Plateau Effects, Mean / Clinical Scoring - All Cartilage Effects, Mean / Clinical Scoring - All Condylar Effects, Mean: gross joint damage score; higher = more damage; conditions: for All Condylar Effects: at the low dose; for Total Score / All Cartilage Effects: both doses; for All Cartilage Effects: compared to the non-injected control group; for lateral femoral condyle surface erosion: high and low dose
Protocol: New Zealand white rabbits (male, six to eight pounds) were anesthetized with ketamine (17 mg/kg) and xylazine (2.5 mg/kg). Supplementation was given during surgery, if needed, with an additional intramuscular injection of ketamine (35 mg/kg) and xylazine (5 mg/kg). The animals were given buprenorphine (0.01-0.05 mg/kg) for analgesia via a subcutaneous injection. The buprenorphine was administered every twelve hours for seventy-two hours. After induction of anesthesia, the right leg was clipped free of hair using electric animal clippers. The area around the site of surgery was scrubbed with chlorhexidine diacetate, rinsed with alcohol, dried, and painted with an aqueous iodophor solution of 1% available iodine and surgery was prepared using aseptic technique. In the right limb of each animal, the anterior cruciate ligament (ACL) was transected. A medial parapatellar incision was made and the patella was dislocated. The knee was flexed and the ACL visualized. A scalpel blade was positioned behind the ACL and brought anteriorly, thereby cutting the ACL while protecting the posterior cruciate ligament. The patella was returned to the normal anatomic position. The wound was closed in layers.
Following surgery, the animals were left untreated for six weeks. After six weeks, a series of five injections of the test compound were injected intra-articularly once weekly.
The animals were euthanized six weeks after initiation with an intravenous injection of pentobarbital (60 mg/kg). […] Immediately following euthanasia, gross observations of the knee joints were made and any abnormality was recorded. The joints were analyzed for disease state in the trochlear groove, the femoral condyles and the tibial plateau. Pathological assessments were performed on the sectioned tissue. Condylar structure, cellularity, presence of GAG and presence of cartilage were evaluated.
Sterile formulations of the test compounds were prepared by gamma irradiating (15 kGy) them on dry ice. […] All formulations were prepared in an aseptic manner by dispersing the drug into ARTHREASE®. […] The drug was delivered in a volume of 160 μL at a concentration of […]. The low dose was made by diluting with ARTHREASE® to the final concentration.
Ninety-six (96) rabbits underwent ACLT on the right knee (n=ten per group) according to the ACLT model. Anesthesia, analgesia, surgical preparation, surgery, intra-articular injections, and euthanasia were conducted according to the ACLT model.
At the time of sacrifice, the following parameters were evaluated grossly (the scale follows in parenthesis):
Each parameter was given a score. The combination of all parameters gave a Total Score. A higher score indicates more damage to the joint. […] Individual results for each parameter assessed were tabulated. Data for the individual scores is not shown.

p38α MAP kinase = p38α MAP kinase (Homo sapiens, UniProt Q16539); experiment: p38α MAP kinase enzyme inhibition; type: biochemical
p38α MAP kinase, sequence (Q16539 whole entry): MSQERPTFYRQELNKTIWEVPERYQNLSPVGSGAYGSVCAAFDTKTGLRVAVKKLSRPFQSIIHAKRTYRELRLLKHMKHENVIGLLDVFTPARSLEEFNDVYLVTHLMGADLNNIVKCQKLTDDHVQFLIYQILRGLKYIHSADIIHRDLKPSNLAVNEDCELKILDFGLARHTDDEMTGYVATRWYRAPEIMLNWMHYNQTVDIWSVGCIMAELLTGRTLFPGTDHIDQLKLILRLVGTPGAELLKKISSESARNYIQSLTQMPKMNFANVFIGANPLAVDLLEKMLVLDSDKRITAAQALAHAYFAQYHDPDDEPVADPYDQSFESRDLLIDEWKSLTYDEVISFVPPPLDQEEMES

Structure (SMILES)	GAG, inhibition of degradation/release [1]	GAG, inhibition of degradation/release ([1]; listed as JNK 7583979 (RWJ 351958))	All Condylar Effects [2]	Total Score [2]	All Cartilage Effects [2]	lateral femoral condyle surface erosion [2]	Clinical Scoring - All Cartilage Effects, Mean ([2]; high dose)	Clinical Scoring - All Condylar Effects, Mean ([2]; high dose)	Clinical Scoring - All Tibial Plateau Effects, Mean ([2]; high dose)	Clinical Scoring - Total Score, Mean ([2]; high dose)	Clinical Scoring - Trochlear Groove Effects, Mean ([2]; high dose)	Clinical Scoring - All Cartilage Effects, Mean ([2]; low dose)	Clinical Scoring - All Condylar Effects, Mean ([2]; low dose)	Clinical Scoring - All Tibial Plateau Effects, Mean ([2]; low dose)	Clinical Scoring - Total Score, Mean ([2]; low dose)	Clinical Scoring - Trochlear Groove Effects, Mean ([2]; low dose)	IC50 (p38α MAP kinase) [nM]
C[C@H](Nc1nccc(-c2c(-c3ccc(F)cc3)nc3nc(N)ccn23)n1)c1ccccc1 [JNJ 7583979 (RWJ 351958)]	little efficacy	little															
CC(=O)N1CCN(c2c(-c3ccncc3)c(-c3ccc(F)cc3)c(C#N)n2C)CC1 [JNJ 17089540 (RWJ 669307)]			decrease in overall clinical score	trended downward	reduction in scores	efficacious in reducing the clinical score	6.21	3.75	2.38	12.46	6.25	5	2.68	1.95	10.41	5.55	2000
OCCC#Cc1nc(-c2ccc(F)cc2)c(-c2ccncc2)n1CCCc1ccccc1 [JNJ 3026582 (RWJ 67657), 4-[4-(4-fluorophenyl)-1-(3-phenylpropyl)-5-(4-pyridinyl)-1H-imidazol-2-yl]-3-butyn-1-ol]	little efficacy		no effect	Neither JNJ 3026582 (RWJ 67657) nor SCIO-282 (SD 282) had an effect	no efficacy	no effect	9.75	6.25	2.25	16.58	7.92	7.58	4.71	1.63	14.17	7.75	
CC(=O)Oc1cccc2c1C(=O)c1c(OC(C)=O)cc(C(=O)O)cc1C2=O [Diacerein, reference compound]	completely inhibited																
